Data as given in patent publication US20050038058A1, “Novel compounds and methods for therapy” (Institute of Organic Chemistry and Biochemistry, priority 2001, published 2005).
Values after ≈ are worked out from the molar mass of the structure shown.

What was measured:
[1] = tested on: HSV-1 (KOS); test: Antiviral activity, HSV-1 (KOS), Table 1a; assay type: cell-based; details: Human alphaherpesvirus 1
[2] = tested on: HSV-2 (G); test: Antiviral activity, HSV-2 (G), Table 1a; assay type: cell-based; details: Human alphaherpesvirus 2
[3] = tested on: HSV-1 TK- VMW 1837; test: Antiviral activity, HSV-1 TK- VMW 1837, Table 1a; assay type: cell-based; details: Human alphaherpesvirus 1, read-out: Antiviral Activity EC50 HSV-1 TK- VMW 1837
[4] = tested on: CMV AD-169; test: Antiviral activity, CMV AD-169, Table 1a; assay type: cell-based; details: Human betaherpesvirus 5, AD169
[5] = tested on: CMV Davis; test: Antiviral activity, CMV Davis, Table 1a; assay type: cell-based; details: Human betaherpesvirus 5
[6] = tested on: VZV TK + OKA; test: Antiviral activity, VZV TK+ OKA, Table 1a; assay type: cell-based; details: Human alphaherpesvirus 3, read-out: Antiviral Activity EC50 VZV TK + OKA
[7] = tested on: VZV TK + YS; test: Antiviral activity, VZV TK+ YS, Table 1a; assay type: cell-based; details: Human alphaherpesvirus 3
[8] = tested on: VZV TK − 07/1; test: Antiviral activity, VZV TK- 07/1, Table 1a; assay type: cell-based; details: Human alphaherpesvirus 3, read-out: Antiviral Activity EC50 VZV TK − 07/1
[9] = tested on: VZV TK − YS/R; test: Antiviral activity, VZV TK- YS/R, Table 1a; assay type: cell-based; details: Human alphaherpesvirus 3, read-out: Antiviral Activity EC50 VZV TK − YS/R
[10] = tested on: MSV; test: Antiviral activity, MSV, Table 1a; assay type: cell-based
[11] = tested on: HIV-2; test: Antiviral activity, HIV-2, Table 1a; assay type: cell-based; details: Human immunodeficiency virus 2
[12] = tested on: HIV-1; test: microbe, parasite or virus in culture; details: Human immunodeficiency virus 1, read-out: Antiviral Activity EC50 HIV-1
[13] = tested on: HIV-1(IIIB); test: HIV-1(IIIB)-induced cytopathicity in CEM cell cultures; assay type: cell-based; details: HIV-1 (IIIB) in CEM
Description: Viruses. The origins of MSV, HIV type 1 (HIV-1) (strain IIIB and Ba-L), HIV-2 (strain ROD) and FIV (strain Petaluma) have been described previously (Balzarini et al., AIDS 5: 21-28, 1991; De Clercq et al., Proc. Soc. Exp. Biol. Med. 137:590-594, 1971; Egberink et al., Proc. Natl. Acad. Sci. 87:3087-3091, 1990; Hartmann et al., Antiviral Chem. Chemother. 5:13-19, 1994; Popovic et al., Science 224:497-500, 1984). HIV-1(IIIB) and HIV-2(ROD) stocks were obtained from supernatants of virus-infected MT-4 cell cultures. HIV-1BaL was expanded in human primary M/M, whose supernatants were collected, filtered and stored at −80° C. before use. Characteristics of viral stocks used for this study were 2.1×10^8 HIV-RNA genomes/ml (corresponding to 35 ng of p24 antigen) and 5,000 tissue culture infectious doses 50% per ml (TCID50/ml) as assessed by virus titration in other primary M/M cultures. The isolation and characterization of the clinical HIV-1 isolates L1S, L6S and L6S/PMEA has been reported (Thormar et al., Proc. Natl. Acad. Sci. USA 93:3283-3287, 1995; Van Laethem et al., AIDS 15:553-561, 2001). […] HIV-1/L6S/PMEA is the clinical isolate HIV-1/L6S that has been isolated after culturing the virus for 11 passages in the presence of increasing concentrations of PMEA (adefovir).
In vitro antiviral assays. The activity against HIV-1- and HIV-2-induced cytopathicity was examined in MT-4 cell cultures at day 5 post infection and based on the determination of cell viability by trypan blue dye staining or in CEM cell cultures at day 4 to 5 post infection and based on the microscopical examination of virus-induced giant cell formation. HIV-1 and HIV-2 were added at 100 CCID50 to the cell cultures.

Compound | EC50 [1] [µg/mL] | EC50 [2] [µg/mL] | EC50 [3] [µg/mL] | EC50 [4] [µg/mL] | EC50 [5] [µg/mL] | EC50 [6] [µg/mL] | EC50 [7] [µg/mL] | EC50 [8] [µg/mL] | EC50 [9] [µg/mL] | EC50 [10] [µg/mL] | EC50 [11] [µg/mL] | EC50 [12] [µg/mL] | EC50 as such ([13]; no addition, Table 3) [µg/mL] | EC50 upon addition of Ade (100 μM) ([13]; Ade 100 μM) [µg/mL] | EC50 upon addition of Ado (400 μM) ([13]; Ado 400 μM) [µg/mL] | EC50 upon addition of Guo (10 μM) ([13]; Guo 10 μM) [µg/mL] | EC50 upon addition of dCyd (1 mM) ([13]; dCyd 1 mM) [µg/mL] | EC50 upon addition of dThd (10 μM) ([13]; dThd 10 μM) [µg/mL]
Nc1cc(OCCOCP(=O)(O)O)ncn1 [Compound H-3418] | > 16 | > 16 | > 16 | > 50 | > 50 | > 50 | > 50 | > 50 | > 50 | 12.6 ± 7.6 (≈ 50.6 µM) | > 100 | > 100 | – | – | – | – | – | –
CN(C)c1cc(OCCOCP(=O)(O)O)nc(N)n1 [Compound H-3427] | > 400 | > 400 | > 400 | > 50 | > 50 | > 50 | > 50 | > 50 | > 50 | 139 ± 11 (≈ 476 µM) | > 100 | > 100 | – | – | – | – | – | –
Nc1nc(NC2CC2)cc(OCCOCP(=O)(O)O)n1 [Compound H-3435] | 240 (≈ 789 µM) | > 80 | – | > 50 | > 50 | > 20 | > 50 | > 50 | > 50 | > 40 | > 100 | > 100 | – | – | – | – | – | –
Nc1nc(OCCOCP(=O)(O)O)cc(OCCOCP(=O)(O)O)n1 [Compound H-3444] | 240 (≈ 595 µM) | > 400 | – | > 50 | > 50 | > 50 | > 50 | > 50 | > 50 | 4.26 ± 0.75 (≈ 10.6 µM) | 80 ± 34.6 (≈ 198 µM) | 56.7 ± 37.9 (≈ 141 µM) | – | – | – | – | – | –
Nc1nc(OCCOCP(=O)(O)O)cc(=O)n1CCOCP(=O)(O)O [Compound H-3445] | > 400 | > 400 | > 400 | > 50 | > 50 | > 50 | > 50 | > 50 | > 50 | 107 ± 10 (≈ 265 µM) | > 100 | > 100 | – | – | – | – | – | –
Cc1cc(OCCOCP(=O)(O)O)nc(N)n1 [Compound H-3453] | > 400 | > 400 | > 400 | > 50 | > 50 | > 50 | > 50 | > 50 | > 50 | 89.4 ± 37.6 (≈ 340 µM) | > 100 | > 100 | – | – | – | – | – | –
Nc1nc(O)cc(OCCOCP(=O)(O)O)n1 [Compound H-3574] | 9.6 (≈ 36.2 µM) | 9.6 (≈ 36.2 µM) | – | 14 (≈ 52.8 µM) | 16 (≈ 60.3 µM) | 1.1 | 0.9 | – | 0.6 (≈ 2.26 µM) | 0.08 (≈ 0.302 µM) | – | > 0.8 | – | – | – | – | – | –
Nc1nc2c(ncn2CCOCP(=O)(O)O)c(=O)[nH]1 [PMEG, reference compound] | – | – | – | – | – | – | – | – | – | – | – | – | >0.05 | >0.05 | >0.05 | >0.05 | >0.25 | >0.25
